Laboratory results reported in patent US20120122860A1, “SOLID FORMS OF SULFONAMIDES AND AMINO ACIDS” (Plexxikon, Inc., priority 2009, published 2012).
pIC50: −log10 of the molar value.

Legend:
Kdr = Kdr (Homo sapiens, UniProt P35968); experiment: Kinase activity assay, Kdr
Src = Src (Homo sapiens, UniProt P12931); experiment: Kinase activity assay, Src
TEC = target: T1, TEC (Homo sapiens, UniProt P42680); experiment: Kinase activity assay, TEC
T1 sequence (P42680 1-631): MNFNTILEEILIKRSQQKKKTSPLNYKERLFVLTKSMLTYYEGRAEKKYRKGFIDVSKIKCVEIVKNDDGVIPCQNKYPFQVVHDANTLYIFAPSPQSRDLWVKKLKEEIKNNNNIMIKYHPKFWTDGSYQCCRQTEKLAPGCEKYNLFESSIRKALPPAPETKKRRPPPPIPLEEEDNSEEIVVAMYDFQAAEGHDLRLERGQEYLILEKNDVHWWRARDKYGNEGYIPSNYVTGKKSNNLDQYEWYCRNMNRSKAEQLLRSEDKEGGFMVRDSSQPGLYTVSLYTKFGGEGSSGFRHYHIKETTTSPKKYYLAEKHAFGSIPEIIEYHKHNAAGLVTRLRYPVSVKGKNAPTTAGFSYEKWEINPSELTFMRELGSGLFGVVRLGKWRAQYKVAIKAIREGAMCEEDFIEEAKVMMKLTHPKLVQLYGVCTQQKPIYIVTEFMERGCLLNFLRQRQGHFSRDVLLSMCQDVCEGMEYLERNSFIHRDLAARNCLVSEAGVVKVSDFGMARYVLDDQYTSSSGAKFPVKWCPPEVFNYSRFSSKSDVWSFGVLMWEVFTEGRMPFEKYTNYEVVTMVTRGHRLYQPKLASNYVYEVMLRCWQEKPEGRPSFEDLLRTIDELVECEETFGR

Kit = Kit (Homo sapiens, UniProt P10721); experiment: Kinase activity assay, Kit
C-Raf = C-Raf (Homo sapiens, UniProt P04049); experiment: Kinase activity assay, C-Raf
B-Raf = B-Raf (Homo sapiens, UniProt P15056); experiment: Kinase activity assay, B-Raf; assay type: biochemical; conditions: read-out: activity toward kinase B-Raf, IC50
Btk = Btk (Homo sapiens, UniProt Q06187); experiment: Kinase activity assay, Btk
B-Raf V600E = B-Raf V600E (Homo sapiens, UniProt P15056, V600E); experiment: Kinase activity assay, B-Raf V600E; assay type: biochemical; conditions: read-out: activity toward kinase B-Raf V600E, IC50
Fms = Fms (Homo sapiens, UniProt P07333); experiment: Kinase activity assay, Fms
MAP4K4 = MAP4K4 (Homo sapiens, UniProt O95819); experiment: Kinase activity assay, MAP4K4

Chain of Kit (P10721 26-976): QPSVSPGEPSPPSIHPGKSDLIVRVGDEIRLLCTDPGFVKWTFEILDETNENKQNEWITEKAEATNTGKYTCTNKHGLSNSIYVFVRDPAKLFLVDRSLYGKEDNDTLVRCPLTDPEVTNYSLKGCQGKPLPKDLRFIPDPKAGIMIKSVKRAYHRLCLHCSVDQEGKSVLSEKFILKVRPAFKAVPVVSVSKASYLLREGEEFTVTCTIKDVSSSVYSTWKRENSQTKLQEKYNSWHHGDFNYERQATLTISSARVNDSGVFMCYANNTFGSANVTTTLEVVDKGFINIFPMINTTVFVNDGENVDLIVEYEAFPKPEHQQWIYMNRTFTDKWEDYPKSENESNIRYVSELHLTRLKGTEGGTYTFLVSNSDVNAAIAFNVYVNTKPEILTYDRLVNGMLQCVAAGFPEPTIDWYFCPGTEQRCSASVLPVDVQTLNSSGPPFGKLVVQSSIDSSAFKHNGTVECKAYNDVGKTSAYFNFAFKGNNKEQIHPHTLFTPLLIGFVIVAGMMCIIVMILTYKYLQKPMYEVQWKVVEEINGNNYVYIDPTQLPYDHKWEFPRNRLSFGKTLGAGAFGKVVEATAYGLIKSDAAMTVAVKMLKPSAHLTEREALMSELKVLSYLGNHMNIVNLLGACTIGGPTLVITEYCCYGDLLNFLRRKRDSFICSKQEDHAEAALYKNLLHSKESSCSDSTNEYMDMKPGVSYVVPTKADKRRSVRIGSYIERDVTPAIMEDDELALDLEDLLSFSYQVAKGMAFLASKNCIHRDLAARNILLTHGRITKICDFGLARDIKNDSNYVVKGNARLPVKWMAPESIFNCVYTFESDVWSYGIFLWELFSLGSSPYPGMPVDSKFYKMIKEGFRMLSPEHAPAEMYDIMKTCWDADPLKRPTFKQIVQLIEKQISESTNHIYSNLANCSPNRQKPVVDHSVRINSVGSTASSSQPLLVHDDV
Chain of Src (P12931 whole entry): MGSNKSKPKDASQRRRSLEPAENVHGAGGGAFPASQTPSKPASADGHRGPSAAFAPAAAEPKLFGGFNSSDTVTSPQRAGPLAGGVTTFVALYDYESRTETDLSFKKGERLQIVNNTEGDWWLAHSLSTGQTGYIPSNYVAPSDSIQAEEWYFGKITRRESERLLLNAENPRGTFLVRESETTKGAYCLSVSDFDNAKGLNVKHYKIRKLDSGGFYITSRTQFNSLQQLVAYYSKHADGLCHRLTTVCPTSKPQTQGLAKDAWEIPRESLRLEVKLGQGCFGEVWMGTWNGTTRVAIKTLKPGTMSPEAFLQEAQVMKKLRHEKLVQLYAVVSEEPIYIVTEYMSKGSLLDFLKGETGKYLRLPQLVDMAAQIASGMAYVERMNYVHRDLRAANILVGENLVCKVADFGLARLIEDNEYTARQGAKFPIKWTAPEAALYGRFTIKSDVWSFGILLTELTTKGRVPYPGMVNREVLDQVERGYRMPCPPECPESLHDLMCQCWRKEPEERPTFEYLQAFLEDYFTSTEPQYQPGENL
Chain of Kdr (P35968 20-1356): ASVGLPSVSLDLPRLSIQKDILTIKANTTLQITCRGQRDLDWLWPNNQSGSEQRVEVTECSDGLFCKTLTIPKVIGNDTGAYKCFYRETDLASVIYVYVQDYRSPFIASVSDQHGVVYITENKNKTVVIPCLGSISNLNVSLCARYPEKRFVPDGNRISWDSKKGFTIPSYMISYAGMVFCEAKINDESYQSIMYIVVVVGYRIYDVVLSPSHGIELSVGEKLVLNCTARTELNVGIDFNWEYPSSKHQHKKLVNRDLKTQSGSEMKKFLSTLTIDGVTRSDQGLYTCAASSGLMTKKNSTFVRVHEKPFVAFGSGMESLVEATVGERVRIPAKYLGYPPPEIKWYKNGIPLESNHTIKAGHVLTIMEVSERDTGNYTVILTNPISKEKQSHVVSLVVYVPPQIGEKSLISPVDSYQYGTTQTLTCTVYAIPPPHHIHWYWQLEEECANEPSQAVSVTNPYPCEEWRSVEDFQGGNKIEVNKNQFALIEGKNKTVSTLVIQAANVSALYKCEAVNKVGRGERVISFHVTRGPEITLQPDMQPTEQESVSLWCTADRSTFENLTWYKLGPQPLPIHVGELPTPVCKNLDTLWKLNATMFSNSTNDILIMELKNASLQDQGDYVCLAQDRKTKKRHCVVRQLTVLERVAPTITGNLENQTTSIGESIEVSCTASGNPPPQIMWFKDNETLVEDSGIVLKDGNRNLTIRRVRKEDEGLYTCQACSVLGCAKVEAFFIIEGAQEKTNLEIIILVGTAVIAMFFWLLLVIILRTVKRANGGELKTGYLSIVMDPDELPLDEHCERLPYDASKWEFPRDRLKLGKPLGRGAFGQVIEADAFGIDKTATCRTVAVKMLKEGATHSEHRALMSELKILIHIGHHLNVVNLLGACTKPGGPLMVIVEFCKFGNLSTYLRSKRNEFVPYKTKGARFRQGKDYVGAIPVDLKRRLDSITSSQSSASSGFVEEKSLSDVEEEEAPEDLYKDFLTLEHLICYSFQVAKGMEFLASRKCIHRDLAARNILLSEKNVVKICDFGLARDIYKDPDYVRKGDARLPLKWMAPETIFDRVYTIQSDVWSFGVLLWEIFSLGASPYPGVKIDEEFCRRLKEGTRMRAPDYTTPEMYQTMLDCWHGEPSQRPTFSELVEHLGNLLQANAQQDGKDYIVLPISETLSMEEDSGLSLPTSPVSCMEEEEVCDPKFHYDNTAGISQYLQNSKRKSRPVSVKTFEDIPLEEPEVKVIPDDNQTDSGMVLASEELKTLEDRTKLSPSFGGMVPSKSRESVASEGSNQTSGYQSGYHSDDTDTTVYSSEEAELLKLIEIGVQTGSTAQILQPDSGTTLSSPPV
Chain of Btk (Q06187 whole entry): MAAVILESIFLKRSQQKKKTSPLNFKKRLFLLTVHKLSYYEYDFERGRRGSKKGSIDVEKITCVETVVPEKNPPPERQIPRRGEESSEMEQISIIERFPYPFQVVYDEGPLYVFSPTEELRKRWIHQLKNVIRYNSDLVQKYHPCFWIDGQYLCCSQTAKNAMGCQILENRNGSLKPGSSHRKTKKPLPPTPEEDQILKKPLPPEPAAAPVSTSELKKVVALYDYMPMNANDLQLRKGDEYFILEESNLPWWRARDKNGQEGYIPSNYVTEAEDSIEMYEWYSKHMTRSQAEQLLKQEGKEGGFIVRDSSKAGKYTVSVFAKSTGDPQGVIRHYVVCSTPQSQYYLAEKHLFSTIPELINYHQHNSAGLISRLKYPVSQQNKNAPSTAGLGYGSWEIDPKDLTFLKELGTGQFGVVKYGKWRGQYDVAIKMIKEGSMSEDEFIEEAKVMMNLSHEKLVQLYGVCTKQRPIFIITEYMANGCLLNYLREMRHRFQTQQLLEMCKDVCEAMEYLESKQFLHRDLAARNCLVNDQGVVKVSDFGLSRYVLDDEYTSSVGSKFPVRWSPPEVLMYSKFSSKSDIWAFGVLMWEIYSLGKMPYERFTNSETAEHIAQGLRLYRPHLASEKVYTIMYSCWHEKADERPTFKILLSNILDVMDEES
Chain of C-Raf (P04049 whole entry): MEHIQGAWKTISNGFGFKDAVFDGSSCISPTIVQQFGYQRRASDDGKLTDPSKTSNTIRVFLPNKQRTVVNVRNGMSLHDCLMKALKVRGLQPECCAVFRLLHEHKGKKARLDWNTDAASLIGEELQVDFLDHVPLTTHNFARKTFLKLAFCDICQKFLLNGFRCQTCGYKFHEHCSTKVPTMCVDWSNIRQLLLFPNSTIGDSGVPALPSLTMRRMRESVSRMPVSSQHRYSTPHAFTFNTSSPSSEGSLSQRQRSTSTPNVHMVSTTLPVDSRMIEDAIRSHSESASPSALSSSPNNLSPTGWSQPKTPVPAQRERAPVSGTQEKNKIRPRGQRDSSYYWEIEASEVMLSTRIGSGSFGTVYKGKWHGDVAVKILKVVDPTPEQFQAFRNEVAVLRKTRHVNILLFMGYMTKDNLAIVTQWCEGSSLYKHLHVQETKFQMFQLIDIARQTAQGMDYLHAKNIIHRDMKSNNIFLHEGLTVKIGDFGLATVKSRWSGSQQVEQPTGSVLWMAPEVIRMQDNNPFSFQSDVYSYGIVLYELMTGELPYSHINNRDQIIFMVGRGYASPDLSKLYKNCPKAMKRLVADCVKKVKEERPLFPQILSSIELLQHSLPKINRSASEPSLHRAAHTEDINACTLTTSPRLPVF
Chain of B-Raf V600E (P15056 whole entry V600E): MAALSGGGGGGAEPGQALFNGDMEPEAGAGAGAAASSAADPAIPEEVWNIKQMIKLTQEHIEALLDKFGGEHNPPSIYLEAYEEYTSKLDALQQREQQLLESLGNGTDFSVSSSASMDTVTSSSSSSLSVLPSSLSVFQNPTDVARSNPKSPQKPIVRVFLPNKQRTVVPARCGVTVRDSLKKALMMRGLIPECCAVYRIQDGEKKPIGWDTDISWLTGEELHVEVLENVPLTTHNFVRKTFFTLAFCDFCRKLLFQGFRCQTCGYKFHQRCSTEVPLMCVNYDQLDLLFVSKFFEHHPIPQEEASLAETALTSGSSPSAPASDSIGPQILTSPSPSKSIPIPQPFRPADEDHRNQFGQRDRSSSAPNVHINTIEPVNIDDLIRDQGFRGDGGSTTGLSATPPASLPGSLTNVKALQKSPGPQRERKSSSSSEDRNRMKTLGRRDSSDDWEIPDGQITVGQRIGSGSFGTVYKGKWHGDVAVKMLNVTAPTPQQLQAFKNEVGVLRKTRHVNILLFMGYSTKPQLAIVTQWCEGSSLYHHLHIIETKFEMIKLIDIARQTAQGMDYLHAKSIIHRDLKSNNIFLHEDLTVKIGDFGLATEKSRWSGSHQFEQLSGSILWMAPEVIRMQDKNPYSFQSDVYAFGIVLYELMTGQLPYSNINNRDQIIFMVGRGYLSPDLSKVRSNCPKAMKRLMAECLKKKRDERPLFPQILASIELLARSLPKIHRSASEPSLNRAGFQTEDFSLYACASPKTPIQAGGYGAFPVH
Chain of B-Raf (P15056 whole entry): as the sequence (P15056 whole entry V600E) above, with E600V counted along it

| Compound | pIC50 (Kdr) | pIC50 (Src) | pIC50 (TEC) | pIC50 (Kit) | pIC50 (C-Raf) | pIC50 (B-Raf) | pIC50 (Btk) | pIC50 (B-Raf V600E) | pIC50 (Fms) | pIC50 (MAP4K4) |
| --- | --- | --- | --- | --- | --- | --- | --- | --- | --- | --- |
| O=C(c1cc(NS(=O)(=O)c2cccc(F)c2)ccc1F)c1c[nH]c2ncccc12 [P-2120, 3-Fluoro-N-[4-fluoro-3-(1H-pyrrolo[2,3-b]pyridine-3-carbonyl)-phenyl]-benzenesulfonamide] | ≥ 5.00 | – | ≥ 5.00 | ≥ 5.00 | – | – | ≥ 5.00 | ≥ 5.00 | ≥ 5.00 | – |
| Cn1cc(-c2cnc3[nH]cc(C(=O)c4cccc(NS(=O)(=O)c5ccc(Cl)cc5)c4)c3c2)cn1 [P-2129, 4-Chloro-N-{3-[5-(1-methyl-1H-pyrazol-4-yl)-1H-pyrrolo[2,3-b]pyridine-3-carbonyl]-phenyl}-benzenesulfonamide] | ≥ 5.00 | – | ≥ 5.00 | ≥ 5.00 | – | – | ≥ 5.00 | ≥ 5.00 | ≥ 5.00 | – |
| Cn1cc(-c2cnc3[nH]cc(C(=O)c4cccc(NS(=O)(=O)c5ccc(F)cc5)c4)c3c2)cn1 [P-2130, 4-Fluoro-N-{3-[5-(1-methyl-1H-pyrazol-4-yl)-1H-pyrrolo[2,3-b]pyridine-3-carbonyl]-phenyl}-benzenesulfonamide] | ≥ 5.00 | – | ≥ 5.00 | ≥ 5.00 | – | – | ≥ 5.00 | ≥ 5.00 | ≥ 5.00 | – |
| Cn1cc(-c2cnc3[nH]cc(C(=O)c4cccc(NS(=O)(=O)c5cccc(F)c5)c4)c3c2)cn1 [P-2136, 3-Fluoro-N-{3-[5-(1-methyl-1H-pyrazol-4-yl)-1H-pyrrolo[2,3-b]pyridine-3-carbonyl]-phenyl}-benzenesulfonamide] | ≥ 5.00 | – | ≥ 5.00 | ≥ 5.00 | – | – | ≥ 5.00 | ≥ 5.00 | ≥ 5.00 | – |
| CCCS(=O)(=O)Nc1ccc(F)c(C(=O)c2c[nH]c3ncc(-c4cnn(CCN5CCOCC5)c4)cc23)c1F [P-2177, Propane-1-sulfonic acid (2,4-difluoro-3-{5-[1-(2-morpholin-4-yl-ethyl)-1H-pyrazol-4-yl]-1H-pyrrolo[2,3-b]pyridine-3-carbonyl}-phenyl)-amide] | ≥ 5.00 | ≥ 5.00 | ≥ 5.00 | ≥ 5.00 | – | ≥ 5.00 | ≥ 5.00 | ≥ 5.00 | ≥ 5.00 | – |
| Cn1cc(-c2cnc3[nH]cc(C(=O)c4c(F)ccc(NS(=O)(=O)C5CC5)c4F)c3c2)cn1 [P-2352, Cyclopropanesulfonic acid {2,4-difluoro-3-[5-(1-methyl-1H-pyrazol-4-yl)-1H-pyrrolo[2,3-b]pyridine-3-carbonyl]-phenyl}-amide] | ≥ 5.00 | ≥ 5.00 | ≥ 5.00 | ≥ 5.00 | – | ≥ 5.00 | ≥ 5.00 | ≥ 5.00 | ≥ 5.00 | – |
| COc1ncc(-c2cnc3[nH]cc(C(=O)c4c(F)ccc(NS(=O)(=O)N5CCCC5)c4F)c3c2)cn1 [P-2400] | ≥ 5.00 | ≥ 5.00 | ≥ 5.00 | ≥ 5.00 | ≥ 5.00 | ≥ 5.00 | ≥ 5.00 | ≥ 5.00 | – | – |
| CCCCS(=O)(=O)Nc1cccc(C(=O)c2c[nH]c3ncc(-c4cnn(C)c4)cc23)c1 [P-2455, Butane-1-sulfonic acid {3-[5-(1-methyl-1H-pyrazol-4-yl)-1H-pyrrolo[2,3-b]pyridine-3-carbonyl]-phenyl}-amide] | ≥ 5.00 | – | ≥ 5.00 | ≥ 5.00 | – | – | ≥ 5.00 | ≥ 5.00 | ≥ 5.00 | – |
| CS(=O)(=O)c1cccc(-c2cnc3[nH]cc(C(=O)c4cccc(NS(=O)(=O)C5CCCCC5)c4)c3c2)c1 [P-2461, Cyclohexanesulfonic acid {3-[5-(3-methanesulfonyl-phenyl)-1H-pyrrolo[2,3-b]pyridine-3-carbonyl]-phenyl}-amide] | ≥ 5.00 | – | ≥ 5.00 | ≥ 5.00 | – | – | ≥ 5.00 | – | ≥ 5.00 | ≥ 5.00 |
| O=C(c1cc(NS(=O)(=O)N2CCCCC2)ccc1F)c1c[nH]c2ncc(Cl)cc12 [P-2468, Piperidine-1-sulfonic acid [3-(5-chloro-1H-pyrrolo[2,3-b]pyridine-3-carbonyl)-4-fluoro-phenyl]-amide] | ≥ 5.00 | – | ≥ 5.00 | ≥ 5.00 | – | – | ≥ 5.00 | ≥ 5.00 | ≥ 5.00 | – |

Second part, the molecule after the results:

| pIC50 (Kdr) | pIC50 (Src) | pIC50 (TEC) | pIC50 (Kit) | pIC50 (C-Raf) | pIC50 (B-Raf) | pIC50 (Btk) | pIC50 (B-Raf V600E) | pIC50 (Fms) | pIC50 (MAP4K4) | Compound |
| --- | --- | --- | --- | --- | --- | --- | --- | --- | --- | --- |
| ≥ 5.00 | ≥ 5.00 | ≥ 5.00 | ≥ 5.00 | ≥ 5.00 | ≥ 5.00 | ≥ 5.00 | ≥ 5.00 | – | – | N#Cc1cnc2[nH]cc(C(=O)c3cccc(NS(=O)(=O)c4c(F)cccc4F)c3F)c2c1 [P-2054, N-[3-(5-Cyano-1H-pyrrolo[2,3-b]pyridine-3-carbonyl)-2-fluoro-phenyl]-2,6-difluoro-benzenesulfonamide] |
| ≥ 5.00 | – | ≥ 5.00 | ≥ 5.00 | – | – | ≥ 5.00 | ≥ 5.00 | ≥ 5.00 | – | Cn1cc(-c2cnc3[nH]cc(C(=O)c4cccc(NS(=O)(=O)c5cccc(C(F)(F)F)c5)c4)c3c2)cn1 [P-2131, N-{3-[5-(1-Methyl-1H-pyrazol-4-yl)-1H-pyrrolo[2,3-b]pyridine-3-carbonyl]-phenyl}-3-trifluoromethyl-benzenesulfonamide] |
| ≥ 5.00 | – | ≥ 5.00 | ≥ 5.00 | – | – | ≥ 5.00 | ≥ 5.00 | ≥ 5.00 | – | Cn1cc(-c2cnc3[nH]cc(C(=O)c4cccc(NS(=O)(=O)c5cccc(Cl)c5)c4)c3c2)cn1 [P-2134, 3-Chloro-N-{3-[5-(1-methyl-1H-pyrazol-4-yl)-1H-pyrrolo[2,3-b]pyridine-3-carbonyl]-phenyl}-benzenesulfonamide] |
| ≥ 5.00 | ≥ 5.00 | ≥ 5.00 | ≥ 5.00 | – | – | ≥ 5.00 | ≥ 5.00 | ≥ 5.00 | – | CCCS(=O)(=O)Nc1ccc(F)c(C(=O)c2c[nH]c3ncc(-c4ccc(NC(C)=O)cc4)cc23)c1F [P-2161, N-(4-{3-[2,6-Difluoro-3-(propane-1-sulfonylamino)-benzoyl]-1H-pyrrolo[2,3-b]pyridin-5-yl}-phenyl)-acetamide] |
| ≥ 5.00 | ≥ 5.00 | ≥ 5.00 | ≥ 5.00 | – | ≥ 5.00 | ≥ 5.00 | ≥ 5.00 | ≥ 5.00 | – | CCS(=O)(=O)Nc1ccc(F)c(C(=O)c2c[nH]c3ncc(-c4cnn(C)c4)cc23)c1F [P-2271, Ethanesulfonic acid {2,4-difluoro-3-[5-(1-methyl-1H-pyrazol-4-yl)-1H-pyrrolo[2,3-b]pyridine-3-carbonyl]-phenyl}-amide] |
| ≥ 5.00 | ≥ 5.00 | ≥ 5.00 | – | ≥ 5.00 | – | ≥ 5.00 | ≥ 5.00 | – | ≥ 5.00 | CCC(C)S(=O)(=O)Nc1ccc(F)c(C(=O)c2c[nH]c3ncc(OC)cc23)c1F (centres unmarked) [P-2308, Butane-2-sulfonic acid [2,4-difluoro-3-(5-methoxy-1H-pyrrolo[2,3-b]pyridine-3-carbonyl)-phenyl]-amide] |
| – | – | ≥ 5.00 | – | – | – | ≥ 5.00 | – | ≥ 5.00 | – | O=C(c1cc(NS(=O)(=O)N2CCCCC2)ccc1F)c1c[nH]c2ncccc12 [P-2440, Piperidine-1-sulfonic acid [4-fluoro-3-(1H-pyrrolo[2,3-b]pyridine-3-carbonyl)-phenyl]-amide] |
| ≥ 5.00 | – | ≥ 5.00 | ≥ 5.00 | – | – | ≥ 5.00 | ≥ 5.00 | ≥ 5.00 | – | CCCS(=O)(=O)Nc1cccc(C(=O)c2c[nH]c3ncc(-c4cnn(C)c4)cc23)c1 [P-2454, Propane-1-sulfonic acid {3-[5-(1-methyl-1H-pyrazol-4-yl)-1H-pyrrolo[2,3-b]pyridine-3-carbonyl]-phenyl}-amide] |
| ≥ 5.00 | – | ≥ 5.00 | ≥ 5.00 | – | – | ≥ 5.00 | – | ≥ 5.00 | – | O=C(c1cccc(NS(=O)(=O)N2CCCCC2)c1)c1c[nH]c2ncc(Cl)cc12 [P-2471, Piperidine-1-sulfonic acid [3-(5-chloro-1H-pyrrolo[2,3-b]pyridine-3-carbonyl)-phenyl]-amide] |
